In brackets after ≈: the same amount, converted by molar mass. Like-named read-outs stand apart in the source and are kept apart here.
Assays:
[1] = test system: MRSA isolates (S. aureus ATCC 33591, BAA-44, BAA-1707, BAA-1717, BAA-1720, BAA-1747, BAA-1754, BAA-1761, BAA-1763, BAA-1764, BAA-1766); assay: Combination effects of compounds 7-11 and antibiotics on MRSA isolates (turbidity); assay type: cell-based
Procedure, shortened: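 Broth tube dilution with 5×10^5 CFU/mL inoculum, 16-20 h at 35±2° C in ambient air (24 h for oxacillin, vancomycin); MIC is lowest concentration preventing visible turbidity, trailing Gram-positive cocci read at first trailing. Synergy scored visually when co-treatment with compound plus antibiotic inhibited growth versus either alone.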

[2] = test system: Klebsiella pneumoniae (CRE, ATCC BAA-1705); assay: MIC against CRE; assay type: cell-based; settings: Klebsiella pneumoniae, ATCCBAA1705
[3] = MIC against MRSA isolates; assay type: cell-based, S. aureus; settings: Staphylococcus aureus
Procedure, shortened: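 Broth microdilution in TSB, ~5×10^5 CFU/mL, two-fold dilutions from 100 μM, overnight at 37 °C shaking 100 rpm.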

VRE = assay: Resensitization to antibiotics (log reduction, TABLE 29); assay type: cell-based, Enterococcus faecalis; settings: compound 2 μM
[4] = test system: Klebsiella pneumoniae (CRE, ATCC BAA-1705); assay: Time-dependent colony counts of CRE with compounds and PME; assay type: cell-based; settings: PME 0.2 μg/mL, compound 20 μM; FIGS. 48, 49
Experimental: The MICs of PME and compounds 8-11 were determined against Klebsiella pneumoniae (CRE, ATCC BAA-1705). […] […] At specific time points, the samples were taken and diluted ten-fold in media. Ten microliters of each dilution was then drip-streaked onto an agar plate and incubated overnight at 37° C. Colony counts were then performed and the CFU/mL were calculated.

S. aureus (ATCC 29213) = assay: microbe, parasite or virus in culture; assay type: cell-based
Experimental: Each mixture was incubated at 37° C. on a rotary shaking incubator for about 16 hours. MTT was then added to assess the viability of the cells (at 10% well volume). […] The cells were then streaked onto a TSA plate and incubated overnight at 37° C. These steps were repeated to reach a total of 30 exposures.

P. aeruginosa = assay: Resensitization to antibiotics (log reduction, TABLE 29); assay type: cell-based; settings: compound 20 μM; PME (0.1 μg/mL)

SMILES: Clc1ccc(Oc2c(-c3ccc(Cl)cc3)[nH]c3ccccc23)cc1 [Compound 10]
- combination effect with Gentamycin ([1]; MRSA ATCC 33591): No Synergy
- combination effect with Norfloxacin ([1]; MRSA ATCC 33591): No Synergy
- combination effect with Oxacillin ([1]; MRSA ATCC 33591): No Synergy
- combination effect with Tetracycline ([1]; MRSA ATCC 33591): No Synergy
- combination effect with Vancomycin ([1]; MRSA ATCC 33591): Susceptible
- combination effect with Norfloxacin ([1]; MRSA ATCC BAA-44): No Synergy
- combination effect with Oxacillin ([1]; MRSA ATCC BAA-44): No Synergy
- combination effect with Tetracycline ([1]; MRSA ATCC BAA-44): Susceptible
- combination effect with Vancomycin ([1]; MRSA ATCC BAA-44): Susceptible
- combination effect with Gentamycin ([1]; MRSA ATCC BAA-1707): Susceptible
- combination effect with Norfloxacin ([1]; MRSA ATCC BAA-1707): Susceptible
- combination effect with Oxacillin ([1]; MRSA ATCC BAA-1707): Susceptible
- combination effect with Tetracycline ([1]; MRSA ATCC BAA-1707): Synergy
- combination effect with Vancomycin ([1]; MRSA ATCC BAA-1707): Susceptible
- combination effect with Gentamycin ([1]; MRSA ATCC BAA-1717): Susceptible
- combination effect with Norfloxacin ([1]; MRSA ATCC BAA-1717): Susceptible
- combination effect with Oxacillin ([1]; MRSA ATCC BAA-1717): Synergy
- combination effect with Tetracycline ([1]; MRSA ATCC BAA-1717): Susceptible
- combination effect with Vancomycin ([1]; MRSA ATCC BAA-1717): Susceptible
- combination effect with Gentamycin ([1]; MRSA ATCC BAA-1720): Susceptible
- combination effect with Norfloxacin ([1]; MRSA ATCC BAA-1720): No Synergy
- combination effect with Oxacillin ([1]; MRSA ATCC BAA-1720): No Synergy
- combination effect with Tetracycline ([1]; MRSA ATCC BAA-1720): Susceptible
- combination effect with Vancomycin ([1]; MRSA ATCC BAA-1720): Susceptible
- combination effect with Gentamycin ([1]; MRSA ATCC BAA-1747): Susceptible
- combination effect with Norfloxacin ([1]; MRSA ATCC BAA-1747): Susceptible
- combination effect with Oxacillin ([1]; MRSA ATCC BAA-1747): Susceptible
- combination effect with Tetracycline ([1]; MRSA ATCC BAA-1747): Susceptible
- combination effect with Vancomycin ([1]; MRSA ATCC BAA-1747): Susceptible
- combination effect with Gentamycin ([1]; MRSA ATCC BAA-1754): Susceptible
- combination effect with Norfloxacin ([1]; MRSA ATCC BAA-1754): Susceptible
- combination effect with Oxacillin ([1]; MRSA ATCC BAA-1754): No Synergy
- combination effect with Tetracycline ([1]; MRSA ATCC BAA-1754): Susceptible
- combination effect with Vancomycin ([1]; MRSA ATCC BAA-1754): Susceptible
- combination effect with Gentamycin ([1]; MRSA ATCC BAA-1761): Susceptible
- combination effect with Norfloxacin ([1]; MRSA ATCC BAA-1761): No Synergy
- combination effect with Oxacillin ([1]; MRSA ATCC BAA-1761): Susceptible
- combination effect with Tetracycline ([1]; MRSA ATCC BAA-1761): Susceptible
- combination effect with Vancomycin ([1]; MRSA ATCC BAA-1761): Susceptible
- combination effect with Gentamycin ([1]; MRSA ATCC BAA-1763): Susceptible
- combination effect with Norfloxacin ([1]; MRSA ATCC BAA-1763): No Synergy
- combination effect with Oxacillin ([1]; MRSA ATCC BAA-1763): No Synergy
- combination effect with Tetracycline ([1]; MRSA ATCC BAA-1763): Susceptible
- combination effect with Vancomycin ([1]; MRSA ATCC BAA-1763): Susceptible
- combination effect with Gentamycin ([1]; MRSA ATCC BAA-1764): Susceptible
- combination effect with Norfloxacin ([1]; MRSA ATCC BAA-1764): Susceptible
- combination effect with Oxacillin ([1]; MRSA ATCC BAA-1764): No Synergy
- combination effect with Tetracycline ([1]; MRSA ATCC BAA-1764): Susceptible
- combination effect with Vancomycin ([1]; MRSA ATCC BAA-1764): Susceptible
- combination effect with Gentamycin ([1]; MRSA ATCC BAA-1766): Susceptible
- combination effect with Norfloxacin ([1]; MRSA ATCC BAA-1766): Susceptible
- combination effect with Oxacillin ([1]; MRSA ATCC BAA-1766): No Synergy
- combination effect with Tetracycline ([1]; MRSA ATCC BAA-1766): Susceptible
- combination effect with Vancomycin ([1]; MRSA ATCC BAA-1766): Susceptible
- MIC [2]: > 100 µM
- MIC ([3]; MRSA (ATCC BAA-44), TABLE 21, read-out: MRSA MIC): 16 µM (≈ 5.67 µg/mL)
- MIC ([3]; MRSA isolate ATCC 33591, read-out: MIC): 12.5 µM (≈ 4.43 µg/mL)
- MIC ([3]; MRSA isolate ATCC BAA-44, read-out: MIC): 8 µM (≈ 2.83 µg/mL)
- MIC ([3]; MRSA isolate ATCC BAA-1707, read-out: MIC): 12.5 µM (≈ 4.43 µg/mL)
- MIC ([3]; MRSA isolate ATCC BAA-1717, read-out: MIC): 6.3 µM (≈ 2.23 µg/mL)
- MIC ([3]; MRSA isolate ATCC BAA-1720, read-out: MIC): 6.3 µM (≈ 2.23 µg/mL)
- MIC ([3]; MRSA isolate ATCC BAA-1747, read-out: MIC): 12.5 to 25 µM (≈ 4.43 to 8.86 µg/mL)
- MIC ([3]; MRSA isolate ATCC BAA-1754, read-out: MIC): 50 µM (≈ 17.7 µg/mL)
- MIC ([3]; MRSA isolate ATCC BAA-1761, read-out: MIC): > 100 µM
- MIC ([3]; MRSA isolate ATCC BAA-1763, read-out: MIC): 50 to 100 µM (≈ 17.7 to 35.4 µg/mL)
- MIC ([3]; MRSA isolate ATCC BAA-1764, read-out: MIC): > 100 µM
- MIC ([3]; MRSA isolate ATCC BAA-1766, read-out: MIC): 25 to 50 µM (≈ 8.86 to 17.7 µg/mL)
- Log Reduction (VRE; Dicloxacillin (10 μg/mL)): 5
- Log Reduction (VRE; Norfloxacin (5 μg/mL)): 5-6
- CRE colony populations on simultaneous treatment with PME [4]: reduced the CRE colony populations to sterility
- Resistance Evolved (S. aureus (ATCC 29213)): No
- MIC (S. aureus (ATCC 29213); Staphylococcus aureus, ATCC29213, read-out: Final MIC Apr. 16, 2015): 16 to 32 µM (≈ 5.67 to 11.3 µg/mL)
- Log Reduction (P. aeruginosa): 2
